Results published in US8835657B2, “Cyclopentanedione compounds and their use as insecticides, acaricides and/or fungicides” (Bayer CropScience AG, priority 2009, dated 2014).
Like-named read-outs stand apart in the source and are kept apart here.

Columns and labels:
Format in all cases: in vivo
[1] = tested on: fall armyworm larvae (Spodoptera frugiperda); experiment: Spodoptera frugiperda test (SPODFR spray application); details: 168 h, spray on maize leaf sections, after 7 days, read-out: Efficacy % (mortality)
Excerpt: Test (SPODFR Spray Application)
(§1) • Solvent: 78.0 parts by weight acetone • 1.5 parts by weight dimethylformamide • Emulsifier: 0.5 parts by weight alkylarylpolyglycolether
To produce a suitable preparation of the active compound, 1 part by weight of active compound is mixed with the stated amount of solvent and emulsifier, and the concentrate is dilutes with emulsifier-containing water to the desired concentration. Maize (Zea mais) leaf sections are sprayed with a preparation of the active ingredient of the desired concentration. Once dry, the leaf sections are infested with fall armyworm larvae (Spodoptera frugiperda).
After 7 days mortality in % is determined. 100% means that all caterpillars have been killed and 0% means that none of the caterpillars have been killed.

[2] = tested on: mustard beetle larvae (Phaedon cochleariae); experiment: Phaedon cochleariae test (PHAECO spray application); details: foliar, 168 h, spray on Chinese cabbage leaf disks, after 7 days, read-out: Efficacy % (mortality)
Method: Test; (PHAECO Spray Application)
• Solvent: 78.0 parts by weight of acetone • 1.5 parts by weight of dimethylformamide • Emulsifier: 0.5 parts by weight of alkylaryl polyglycolether
To produce a suitable preparation of active compound, 1 part by weight of active compound is mixed with the stated amount of solvent and emulsifier, and the concentrate is diluted with emulsifier-containing water to the desired concentration. Chinese cabbage (Brassica pekinesis) leaf-disks are sprayed with a preparation of the active ingredient of the desired concentration. Once dry, the leaf disks are infested with mustard beetle larvae (Phaedon cochleariae).
After 7 days mortality in % is determined. 100% means that all beetle larvae have been killed and 0% means that none of the beetle larvae have been killed.

[3] = tested on: green peach aphid (Myzus persicae); experiment: Myzus persicae test (MYZUPE spray application); details: foliar, 144 h, spray on Chinese cabbage leaf disks, after 6 days, read-out: Efficacy % (mortality)
Method: Test; (MYZUPE Spray Application)
as §1
(§2) To produce a suitable preparation of active compound, 1 part by weight of active compound is mixed with the stated amount of solvent and emulsifier, and the concentrate is diluted with emulsifier-containing water to the desired concentration. Chinese cabbage (Brassica pekinesis) leaf-disks infected with all instars of the green peach aphid (Myzus persicae), are sprayed with a preparation of the active ingredient at the desired concentration.
After 6 days mortality in % is determined. 100% means that all aphids have been killed; 0% means that none of the aphids have been killed.

[4] = tested on: two spotted spidermite (Tetranychus urticae); experiment: Tetranychus urticae test; OP-resistant (TETRUR spray application); details: 144 h, read-out: Efficacy % (mortality)
Method: Test; OP-Resistant (TETRUR Spray Application)
as §1
as §2, with “French beans (Phaseolus vulgaris) which are heavily infested” for “Chinese cabbage (Brassica pekinesis) leaf-disks infected”, “stages” for “instars”, “two spotted spidermite (Tetranychus urticae),” for “green peach aphid (Myzus persicae),”
After 6 days mortality in % is determined. 100% means that all spider mites have been killed and 0% means that none of the spider mites have been killed.

[5] = tested on: Meloidogyne incognita; experiment: Meloidogyne test (MELGIN); details: 20 ppm, sand with salad seeds, after 14 days
Method: Meloidogyne Test (MELGIN)
• Solvent: 80.0 parts by weight of acetone
To produce a suitable preparation of active compound, 1 part by weight of active compound is mixed with the stated amount of solvent, and the concentrate is diluted with emulsifier-containing water to the desired concentration.
Vessels are filled with sand, a solution of the active ingredient, a suspension containing eggs and larvae of Meloidogyne incognita and salad seeds. The salade seeds germinate and the seedlings grow. Galls develop in the roots.
After 14 days the nematicidal activity is determined on the basis of the percentage of gall formation. 100% means that no galls were found; 0% means that the number of galls found on the roots of the treated plants was equal to that in untreated control plants.

## CCOC(=O)OC1=C(c2cc(-c3ccc(Cl)cc3)ccc2C)C(=O)C2C3CCC(O3)C12 (stereo not drawn) [Ex No. P 12]
[1]
  mortality at 500 g/ha: 100%
[2]; 500 g/ha
  mortality at 500 g/ha: 83%
[3]
  mortality at 500 g/ha: 90%
[4]
  mortality at 500 g/ha: 100%

## Cc1ccc(-c2ccc(Cl)cc2)cc1C1=C(O)[C@H]2[C@@H](C1=O)[C@@H]1CC[C@H]2O1 [Ex No. T 1]
[1]
  mortality at 500 g/ha: 100%
[5]
  Efficacy % (nematicidal activity, gall formation): 100%
[2]; 100 g/ha
  mortality at 100 g/ha: 83%
[3]
  mortality at 500 g/ha: 90%
[4]; TETRUR, OP-resistant, 500 g/ha, spray on French beans, after 6 days
  mortality at 500 g/ha: 100%
